Our source for the S/N values is US9341616B2, “Sweet taste receptor chimeric proteins and use thereof” (AJINOMOTO CO., INC., priority 2014, dated 2016).

Assay [1] has as its target hT1R2/T1R3mosaicB (UniProt Q8TE23+Q925D8, A558R/A588V/A645S/A698V/A702T/A793V/A807V/A88D/C582S/C678S/E725V/F541I/F612A/F622V/F695L/F71L/G86K/H728R/I152V/I617V/I706V/I740A/I803L/K555R/K565R/K818R/K827G/L151M/L560F/L684P/L68N/L72W/L735F/L823M/L825Q/M644L/M744T/M74L/N547G/N675D/P545F/P561R/P564S/P67S/Q123R/Q550E/Q611L/Q757R/Q795R/Q831P/R632Q/S112P/S124D/S576L/S595F/S610P/S635P/S637R/S679G/S717H/T109A/T542A/T663I/T694M/T813A/V120A/V573A/V584A/V718M/V723A/V729T/V738A/V805L/V812A/V821L/W599R/W676R/W824R/Y680C/Y794L). The settings on record: Table 6; genes hT2/T1R3mB (hT1R2, T1R3mB); HEK293E cells. As to the method:
(§1) The HEK293E cells maintained by using the DMEM/Ham's F-12 medium (Nakarai Tesque) containing 10% fetal bovine serum ([…]) and 1% Pen Strep (GIBCO) were washed with D-PBS(−) (Nakarai Tesque), and collected from the flask by using 0.25% Trypsin EDTA (GIBCO). The cells were centrifuged (1,200 rpm, 3 minutes), and after the supernatant was removed, suspended in 5% FBS DMEM/Ham's F-12 at a density of 0.75×10^7 cell/ml. This suspension (10 ml) was put into a […] (IWAKI), and culture was performed overnight (37° C., 5% CO2). On the next day, the medium was exchanged with Opti-MEM (30 ml, Invitrogen, Life Technologies), a sweet taste receptor gene mixture (Gα15-trans48LD gene, various kinds of T1R2 chimeric genes, and various kinds of T1R3 chimeric genes, 63.8 μg in total) prepared by using Opti-MEM and Lipofectamin 2000 (Invitrogen, Life Technologies) was slowly added to the cell suspension, and incubation was performed (37° C., 5% CO2) for 6 hours to attain gene transfer.
(§2) After the gene transfer, the cells were washed with D-PBS(−), then removed from the flask by using 0.25% Trypsin EDTA (GIBCO), and collected. After the cell number was counted, the cells were suspended in the 5% FBS DMEM medium (2.78 mM glucose, GIBCO) at a density of 0.5×10^6 cell/ml. This cell suspension was put into wells of D-Lysine coat 96-well plate (BD bioscience) in such a volume that the cell count is 7.0×10^4 cells/well, and the cells were cultured overnight.
(§3) After the culture, all the medium of the 96 wells were discarded. 200 μl of the staining solution for measurement of intracellular calcium ion′ Calcium Assay Kit Express (Molecular Device), diluted 80 times with an assay buffer (20 mM HEPES, 146 mM NaCl, 1 mM MgSO4, 1.39 mM glucose, 1 mM CaC12, 2.5 mM Probenecid, 0.05% bovine serum albumin) was added to each well, and the plate was left standing at 37° C. for 30 minutes and at room temperature for 45 minutes to perform staining. After the staining, 50 μl of a solution of stimulant (sweet taste substance) prepared with the assay buffer was added to each well, and the fluorescence value was measured for 120 seconds after the stimulation by using FDSSμEELL (Hamamatsu Photonics). By measuring the fluorescence value (Ex. 480 nm, Em. 540 nm) before and after the stimulation, the change of the intracellular free calcium ion concentration caused by addition of the stimulant via a sweet taste receptor was quantitatively investigated. The measurement and analysis of the fluorescence value was performed by using the software attached to FDSSμEELL (FDSS7000EX), and ΔF/F value was calculated in accordance with the following equation, and used for the evaluation. ΔF/F=(Maximum fluorescence value after stimulation−Minimum fluorescence value after stimulation)/(Fluorescence value before stimulation)
(§4) Furthermore, by using the ΔF/F values obtained when each sweet taste substance was added, the S/N ratio was calculated. Specifically, the S/N value was calculated by using the minimum value of ΔF/F obtained when each substance was added at various concentrations as noise (N) value, and the similarly obtained maximum value of ΔF/F as the signal (S) value, and used as an index for sensitivity of the measurement of the activity of each receptor. That is, a higher S/N value means a higher sensitivity for detection of an interaction of a sweet taste receptor and a test substance, which makes it easier to detect stimulation with a sweet taste substance or sweet taste-regulating substance of a lower concentration.
(§5) The sweet taste substances used as the stimulating substance are acesulfame potassium (Tokyo Kasei Kogyo), sodium saccharin (WAKO), sucralose (SIGMA), sucrose (WAKO), and neotame (SIGMA), as well as aspartame, advantame, and SC-45647 ([3-[(S)-1-phenylethyl]-2-(4-cyanophenyl)guanidino]acetic acid, which were all synthesized in-house.

Assay [2] concerns the target h-mT1R2-471/mT1R3 (UniProt Q8TE23+Q925D8, A537S/A564V/A568V/A570T/A649T/A658V/A782V/D480N/E530V/E534N/E542M/E548N/F525Y/F665L/G696N/G701T/H484Y/H528R/I481V/I486P/I490V/I510L/I518V/I595M/I643V/I645L/I692L/I695G/K476T/K504M/K626T/K714N/L471T/L521P/L571I/L578I/L610P/L631F/L636F/L639V/L688V/L702I/L734M/L800F/M492I/M616G/M682V/M690V/M748V/N477Y/N540G/N541S/N721H/P638T/P824S/Q472E/Q474R/Q479S/Q536L/Q546K/Q555R/Q676H/R473T/R498S/R667S/S501P/S547N/S550A/S628F/S663R/S670G/S681F/S703N/S727G/S784D/S804G/T529S/T549I/T609V/T629S/T642S/T705I/T706G/T716I/V508I/V512P/V557A/V585L/V613L/V617M/V673M/V687A/V691A/V694A/V718L/V741L/V774I/V791M/Y533F/Y615F/Y671F/Y769S/Y783H). The settings on record: Table 4; genes h-mT471/mT3 (h-mT1R2-471, mT1R3); HEK293E cells. The method, then: as §1, §2, §3, §4, §5

Residues, ends and D or L forms follow the SMILES beside them.

hT1R2/T1R3mosaicB, sequence (Q8TE23 20-839, stated change not applied): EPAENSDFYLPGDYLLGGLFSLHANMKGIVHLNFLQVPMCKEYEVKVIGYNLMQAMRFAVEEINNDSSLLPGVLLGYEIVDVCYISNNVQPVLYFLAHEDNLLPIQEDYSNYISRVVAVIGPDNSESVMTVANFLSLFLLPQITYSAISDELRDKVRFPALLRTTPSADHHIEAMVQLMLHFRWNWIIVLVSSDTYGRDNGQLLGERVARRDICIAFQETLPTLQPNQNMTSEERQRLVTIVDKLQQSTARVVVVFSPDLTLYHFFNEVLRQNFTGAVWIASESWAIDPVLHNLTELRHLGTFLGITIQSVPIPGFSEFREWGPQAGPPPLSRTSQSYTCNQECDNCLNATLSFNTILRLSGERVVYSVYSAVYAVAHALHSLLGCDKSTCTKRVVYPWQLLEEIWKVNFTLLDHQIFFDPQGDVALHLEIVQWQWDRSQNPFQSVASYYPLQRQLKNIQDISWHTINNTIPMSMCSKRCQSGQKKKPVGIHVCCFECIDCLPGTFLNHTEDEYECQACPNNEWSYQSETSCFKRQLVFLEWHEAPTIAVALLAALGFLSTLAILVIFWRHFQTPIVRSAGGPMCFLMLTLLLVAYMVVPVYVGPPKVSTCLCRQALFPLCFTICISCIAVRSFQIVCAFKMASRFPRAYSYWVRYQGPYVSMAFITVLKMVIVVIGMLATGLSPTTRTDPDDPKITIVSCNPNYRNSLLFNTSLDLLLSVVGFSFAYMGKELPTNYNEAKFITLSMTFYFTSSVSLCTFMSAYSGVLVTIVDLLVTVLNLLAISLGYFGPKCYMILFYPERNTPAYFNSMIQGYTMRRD
hT1R2/T1R3mosaicB, sequence (Q925D8 with tags, fused parts or gaps with the stated changes limits assumed): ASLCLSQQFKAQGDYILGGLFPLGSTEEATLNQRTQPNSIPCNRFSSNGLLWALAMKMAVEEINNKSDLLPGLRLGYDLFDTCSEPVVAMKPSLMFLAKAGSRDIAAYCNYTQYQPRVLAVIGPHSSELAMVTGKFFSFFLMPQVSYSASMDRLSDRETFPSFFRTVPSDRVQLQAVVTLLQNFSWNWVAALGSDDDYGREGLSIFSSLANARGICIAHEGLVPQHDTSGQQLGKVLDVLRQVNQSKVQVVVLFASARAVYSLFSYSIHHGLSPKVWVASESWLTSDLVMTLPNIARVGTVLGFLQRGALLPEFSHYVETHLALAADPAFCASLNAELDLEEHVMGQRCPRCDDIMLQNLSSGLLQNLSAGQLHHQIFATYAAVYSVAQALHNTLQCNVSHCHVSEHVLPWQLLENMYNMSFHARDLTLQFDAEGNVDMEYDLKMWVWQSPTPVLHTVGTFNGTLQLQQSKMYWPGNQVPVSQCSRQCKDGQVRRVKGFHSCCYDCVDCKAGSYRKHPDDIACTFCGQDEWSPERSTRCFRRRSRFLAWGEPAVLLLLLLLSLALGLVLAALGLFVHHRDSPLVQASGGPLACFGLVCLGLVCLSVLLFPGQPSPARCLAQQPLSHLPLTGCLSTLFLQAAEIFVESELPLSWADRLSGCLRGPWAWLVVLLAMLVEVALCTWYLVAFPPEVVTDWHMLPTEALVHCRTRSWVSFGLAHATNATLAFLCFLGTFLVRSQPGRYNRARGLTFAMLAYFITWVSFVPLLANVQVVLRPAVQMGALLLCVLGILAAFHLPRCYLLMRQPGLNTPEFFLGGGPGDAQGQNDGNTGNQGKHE
h-mT1R2-471/mT1R3, sequence (Q8TE23 with tags, fused parts or gaps with the stated changes limits assumed): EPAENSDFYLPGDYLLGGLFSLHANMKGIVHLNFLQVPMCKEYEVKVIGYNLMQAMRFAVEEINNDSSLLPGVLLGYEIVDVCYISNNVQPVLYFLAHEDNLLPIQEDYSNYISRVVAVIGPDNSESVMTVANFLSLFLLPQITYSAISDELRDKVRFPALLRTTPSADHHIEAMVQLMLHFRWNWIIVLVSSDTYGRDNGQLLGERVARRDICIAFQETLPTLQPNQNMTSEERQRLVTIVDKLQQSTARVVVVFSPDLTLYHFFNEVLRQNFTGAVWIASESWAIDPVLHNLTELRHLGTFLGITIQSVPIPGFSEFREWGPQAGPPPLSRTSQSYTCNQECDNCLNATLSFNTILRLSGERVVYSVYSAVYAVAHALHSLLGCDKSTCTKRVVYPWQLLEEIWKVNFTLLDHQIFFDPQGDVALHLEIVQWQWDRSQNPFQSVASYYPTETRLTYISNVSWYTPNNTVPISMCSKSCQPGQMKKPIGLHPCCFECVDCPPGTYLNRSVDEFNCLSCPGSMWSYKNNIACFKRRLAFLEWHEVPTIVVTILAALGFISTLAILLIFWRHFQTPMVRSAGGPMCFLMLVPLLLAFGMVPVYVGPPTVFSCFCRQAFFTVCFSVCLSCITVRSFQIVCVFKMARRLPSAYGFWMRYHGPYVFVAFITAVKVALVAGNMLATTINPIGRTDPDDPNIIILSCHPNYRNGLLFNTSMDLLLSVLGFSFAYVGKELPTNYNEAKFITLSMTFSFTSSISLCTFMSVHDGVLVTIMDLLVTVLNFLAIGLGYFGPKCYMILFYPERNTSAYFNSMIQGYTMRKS
h-mT1R2-471/mT1R3, sequence (Q925D8 21-858, stated change not applied): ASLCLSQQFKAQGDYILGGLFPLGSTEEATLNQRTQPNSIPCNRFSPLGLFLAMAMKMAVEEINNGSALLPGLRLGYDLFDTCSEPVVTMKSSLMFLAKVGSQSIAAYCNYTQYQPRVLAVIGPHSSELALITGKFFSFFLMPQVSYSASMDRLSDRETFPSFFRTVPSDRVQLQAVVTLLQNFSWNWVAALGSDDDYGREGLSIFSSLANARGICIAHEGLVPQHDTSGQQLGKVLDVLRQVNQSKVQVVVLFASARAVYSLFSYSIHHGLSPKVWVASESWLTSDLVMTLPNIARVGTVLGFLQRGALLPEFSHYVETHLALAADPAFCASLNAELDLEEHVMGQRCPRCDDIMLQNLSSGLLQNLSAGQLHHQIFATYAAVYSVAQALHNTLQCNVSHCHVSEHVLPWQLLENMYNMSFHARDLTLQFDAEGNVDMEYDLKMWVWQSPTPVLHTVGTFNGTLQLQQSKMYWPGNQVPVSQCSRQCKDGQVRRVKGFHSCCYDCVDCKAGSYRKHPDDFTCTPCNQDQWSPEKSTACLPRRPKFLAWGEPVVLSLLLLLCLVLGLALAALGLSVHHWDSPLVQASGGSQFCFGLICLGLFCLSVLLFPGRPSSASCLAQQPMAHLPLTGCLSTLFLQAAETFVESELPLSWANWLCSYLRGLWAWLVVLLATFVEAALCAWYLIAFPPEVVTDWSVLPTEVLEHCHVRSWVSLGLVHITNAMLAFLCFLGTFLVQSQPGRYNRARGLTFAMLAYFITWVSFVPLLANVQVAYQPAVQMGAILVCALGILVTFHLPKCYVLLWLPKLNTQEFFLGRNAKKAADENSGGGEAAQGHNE

With `CC1=CC(=O)NS(=O)(=O)O1` [Acesulfame K, acesulfame potassium], the S/N in assay [1] was found to be 5.5; in assay [2], 3.1.

For `COC(=O)[C@H](Cc1ccccc1)NC(=O)[C@H](CC(=O)O)NCCCc1ccc(OC)c(O)c1` [Advantame, advantame], the S/N was 8.5 in assay [1] and 5.5 in assay [2].

As to `COC(=O)[C@H](Cc1ccccc1)NC(=O)[C@@H](N)CC(=O)O` [Aspartame, aspartame] (HELM PEPTIDE1{D.F.[CO[*:1]]}$$$$V2.0), the results for the S/N in assay [1] and in assay [2] were 5.4 and 4.6, respectively.

In turn, `COc1ccc(CCC(=O)c2c(O)cc(O[C@@H]3O[C@H](CO)[C@@H](O)[C@H](O)[C@H]3O[C@@H]3O[C@@H](C)[C@H](O)[C@@H](O)[C@H]3O)cc2O)cc1O` [NHDC, neohesperidin dihydrochalcone] showed a S/N in assay [1] of 4.8.

Turning to `COC(=O)[C@H](Cc1ccccc1)NC(=O)[C@H](CC(=O)O)NCCC(C)(C)C` [Neotame, neotame], the figures for the S/N in assay [1] and in assay [2] were 6.0 and 4.4, respectively.

As to `C[C@H](NC(=Nc1ccc(C#N)cc1)NCC(=O)O)c1ccccc1` [SC-45647, [3-[(S)-1-phenylethyl]-2-(4-cyanophenyl)guanidino]acetic acid], the S/N in assay [1] was determined as 7.0; in assay [2] it was 4.2.

Take `O=C1NS(=O)(=O)c2ccccc21.[Na]` [Saccharin Na, sodium saccharin]: the values for the S/N in assay [1] and in assay [2] were 5.4 and 3.6, respectively.

`OC[C@H]1O[C@H](O[C@]2(CCl)O[C@H](CCl)[C@@H](O)[C@@H]2O)[C@H](O)[C@@H](O)[C@H]1Cl` [Sucralose, sucralose]: the figures for the S/N in assay [1] and in assay [2] were 4.1 and 4.6, respectively.

As for `OC[C@H]1O[C@@](CO)(O[C@H]2O[C@H](CO)[C@@H](O)[C@H](O)[C@H]2O)[C@@H](O)[C@@H]1O` [Sucrose, sucrose], the S/N in assay [1] came to 4.7; in assay [2] it was 3.5.
